Read-outs that look alike come from different tables or passages of the source.
What was measured:
[1] = Thermodynamic solubility in pH7 buffered solution; conditions: 50 mM phosphate buffer pH7, 150 mM NaCl, ambient temperature, 24 hours
Description: Solubility was determined at ambient temperature in a 50 mM phosphate buffered pH7 solution with 150 mM NaCl (to achieve isotonicity). Solids were added to the buffered solution in 1.5-mL Eppendorf tubes, vortexed for 1 minute, then agitated for 24 hours in an Eppendorf ThermoMixer C. […] Supernatants were diluted to a volume of 1 mL with 30:70 v/v acetonitrile:water. All diluted supernatants were analyzed by UPLC using a Waters Acquity UPLC with a PDA UV detector.

[2] = CC50 MT4 cytotoxicity (Cell-Titer Glo); format: cell-based; conditions: human
Summary of the method: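 Uninfected MT-4 and HEp-2 cells cultured 4-5 days at 37° C with 3-fold serially diluted compound (15 nM to 100,000 nM). Viability read by Cell-Titer Glo luminescence; untreated and 2 μM puromycin wells set 100% and 0%. CC50 from non-linear regression as concentration reducing viability by 50%.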

Plasma stability = format: in vitro ADME; parameters: unit not given here; conditions: 37° C., 2 μM substrate
Summary of the method: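 Reaction mixture was sampled at 0.05, 0.5, 1, 2, 3 and 4 hr into quench solution containing internal standard, then centrifuged and diluted with water. Remaining analyte was measured by LC-MS on a Q-Exactive using a formic acid/acetonitrile gradient, with 5 ppm mass tolerance.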

[3] = tested on: Caco-2 cells (clone C2BBe1); test: CACO-2 permeability; format: in vitro ADME; parameters: unit not given here; conditions: for DM Caco2 A to B: apical to basolateral, donor pH 6.5, receiver pH 7.4; for DM Caco2 B to A: basolateral to apical
Summary of the method: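 Caco-2 monolayers grown 21 days on collagen-coated transwells and checked for integrity by TEER. Donor buffer was HBSS/HEPES/glucose pH 6.5 with 200 μM BNPP; receiver was pH 7.4 with BSA. Compounds were dosed apically or basolaterally for A-to-B and B-to-A transport, with receiver sampling at 1 and 2 h, LC-MS/MS analysis and percent recovery.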

GI S9 stability = format: in vitro ADME; conditions: human, s9, pH 7.4
Description: Example G: GI S9 Stability
Duplicate aliquots of test compound or positive control substrate (GS-7340) were added to S9 stock diluted with 100 mM phosphate buffered saline, pH 7.4, to obtain a protein concentration of 1.0 mg/mL. The S9 metabolic reactions were initiated by the addition of the substrates to the S9 reaction mixture to a final concentration of 2 μM. At 0, 10, 20, 30, 60 and 120 min, […] aliquots of the reaction mixture were transferred to plates containing […] of IS/Q solution. After quenching, the plates were centrifuged at 3000 g for 30 minutes, and 150 μL aliquots of each supernatant were diluted with 150 μL water. Aliquots ([…]) of the diluted supernatant were analyzed on a Thermo Q-Exactive mass spectrometer as described below. GI S9 Stability—No phenylmethylsulfonyl fluoride (PMSF): Similar to the procedure described above, test compounds were incubated at 2 μM with 1 mg/mL PMSF-free Intestinal S9 fractions. Samples are removed at 6 time points over the course of a 120 min experiment and the parent compound disappreance and reference compound A formation is determined by mass spectrometry.
Example K: Liquid Chromatography/Mass Spectroscopy Methods for S9 and Plasma Stability
Quantification of test compounds, Reference Compound A (S9 stability assay nucleoside metabolite), and controls was performed by analyte/internal standard peak area ratio (PAR) values measured on a Thermo Q-Exactive mass spectrometer coupled to a Dionex UltiMate 3000 HPLC with a Leap Technologies HTC PAL autosampler. The column used for analysis of test compounds and Reference Compound A was a Waters Acquity BEH C18 ([…] particle size, 2.1′50 mm). The column used for control (GS-7340) was a Thermo Hypersil GOLD ([…] particle size, 2.1′50 mm). Mobile phase A consisted of 0.1% (v/v) formic acid in water. Mobile phase B consisted of 0.1% (v/v) formic acid in acetonitrile. Elution of analytes was achieved by a series of linear gradients of acetonitrile in water containing 0.1°(v/v) formic acid. The mass spectrometer was calibrated on a weekly basis and mass tolerance of 5 ppm was used.

[4] = tested on: Respiratory syncytial virus recombinant with luciferase (RSV-Luc5) in Normal Human Bronchial Epithelial (NHBE) cells; test: microbe, parasite or virus in culture; format: cell-based
[5] = tested on: Respiratory syncytial virus recombinant with luciferase (RSV-Luc5) in HEp-2 cells; test: microbe, parasite or virus in culture; format: cell-based; conditions: human respiratory syncytial virus
[6] = Stability in pH7 buffered solution; format: physicochemical; conditions: pH7 phosphate buffer, 40° C., Table N2
Description: Example N: Stability in p112 and p117 Buffered Solutions
The aqueous stability of compounds over a time of 24 hours at 40° C. was assessed. Stability was determined in 50 mM phosphate buffered solutions at both pH2 and pH7, with 150 mM NaCl (to achieve isotonicity). 3-5 mg of solid compounds were added to 7 mL scintillation vials. Acetonitrile was added to each vial to produce a 1 mg/mL stock solution. Stock solutions were diluted to 50 μg/mL in either pH2 or pH7 phosphate buffer, to a volume of 1 mL. For each compound and pH condition, 50 μg/mL samples were prepped in duplicate. One sample was placed on the UPLC tray at 40° C. for analysis, and the second sample was placed in a 40° C. oven for storage. Sample preps for each compound were offset by 40 minutes to account for run time on UPLC.
Concentration timepoints were measured at 0, 3, 6, 9, and 12 hrs. After 24 hrs, samples in the 40° C. oven were removed and analyzed by UPLC.
In FIG. 2, % AN stands for % area normalized. That is, % AN is the area of the compound peak relative to the sum of areas of all the peaks in the UPLC chromatogram. For example, if there were two peaks, compound peak with an area of 9 and another peak with an area of 1, then the % AN of the compound peak would be 90%.

[7] = Stability in pH2 buffered solution; format: physicochemical; conditions: pH2 phosphate buffer, 40° C., 24 h; Table N2
Summary of the method: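 Compounds diluted from 1 mg/mL acetonitrile stock to 50 μg/mL in 50 mM phosphate buffer with 150 mM NaCl at pH2 or pH7, held at 40° C. for 24 hrs. UPLC sampling at 0, 3, 6, 9, 12 hrs, plus 24 hrs from oven-stored duplicate; reported as % area normalized of compound peak.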

[8] = tested on: SARS Coronavirus 2 recombinant with NanoLuc (SARS-CoV2-NLuc) in A549-hACE2 cells; test: organism not typed; format: cell-based
[9] = GI S9 stability - no PMSF; format: in vitro ADME; conditions: pH 7.4
Summary of the method: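 Compounds were incubated at 2 μM with PMSF-free intestinal S9 (1 mg/mL protein) in 100 mM PBS, pH 7.4, sampling at 6 time points over 120 min. Parent disappearance and formation of the nucleoside metabolite Reference Compound A were quantified by LC-MS (Q-Exactive) using analyte/internal standard peak area ratios.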

[10] = HEp-2, 72 h, read-out: RSV Hep2 EC50
[11] = uninfected MT-4 cells, Table D3, read-out: CC50 MT4 384
[12] = read-out: EC50 RSVFluc-NHBE 384 V2
[13] = A549; read-out: EC50 SARS CoV2 NanoLuc A549 384

SMILES | Sol pH 7 [1] | CC50 [2] [nM] | STA Human Plasma 37 (Plasma stability) | DM Caco2 A to B [3] | DM Caco2 B to A [3] | half-life at 2 µM (GI S9 stability) [min] | EC50 ([4]; 72 h, read-out: RSV NHBE EC50) [nM] | EC50 [5, 10] [nM] | pH 7 Stability 24 h % AN [6] [% AN] | pH 2 Stability 24 h % AN [7] [% AN] | EC50 ([8]; 48 h; read-out: SARS-CoV2 EC50) [nM] | EC50 ([8]; 48 h, read-out: SARS-CoV2 EC50) [nM] | half-life at 2 µM ([9]; human intestinal S9, PMSF-free, read-out: GIS9-HUMAN-NoPMSF T1/2) [min] | CC50 [2, 11] [nM] | EC50 [4, 12] [nM] | EC50 ([5]; HEp-2, read-out: EC50 RSVFluc-Hep2 384 V2) [nM] | logD (DM logD) | EC50 [8, 13] [nM] | GIS9-HUMAN-NoPMSF T1/2 ([9]; human, s9, 2 µM)
N#C[C@@]1(c2ccc3c(N)ncnn23)O[C@H](COC(=O)OCc2ccccc2)[C@@H](O)[C@H]1O [Compound 13, ((2R,3S,4R,5R)-5-(4-aminopyrrolo[2,1-f][1,2,4]triazin-7-yl)-5-cyano-3,4-dihydroxytetrahydrofuran-2-yl)methyl benzyl carbonate] | 0.12 | 39100 | 3 | 0.59 | 8.8 | 35.3 | 1530 | 444 | 97 | 98 | 1250 |  |  |  |  |  |  |  | 
N#C[C@@]1(c2ccc3c(N)ncnn23)O[C@H](COC(=O)OC2CCCCCCC2)[C@@H](O)[C@H]1O [Compound 14, ((2R,3S,4R,5R)-5-(4-aminopyrrolo[2,1-f][1,2,4]triazin-7-yl)-5-cyano-3,4-dihydroxytetrahydrofuran-2-yl)methyl cyclooctyl carbonate] |  | > 50000 | 262.42 | 1.84 | 21.7 | 56.3 | 380 | 350 | 97 | 97 |  | 1560 | 1.07 |  |  |  |  |  | 
CCC(CC)COC(=O)OC[C@H]1O[C@@](C#N)(c2ccc3c(N)ncnn23)[C@H](O)[C@@H]1O [Compound 15, ((2R,3S,4R,5R)-5-(4-aminopyrrolo[2,1-f][1,2,4]triazin-7-yl)-5-cyano-3,4-dihydroxytetrahydrofuran-2-yl)methyl (2-ethylbutyl) carbonate] | 0.26 | > 50000 | 40.503 | 1.46 | 12 | 33.1 | 900 | 530 | 97 | 98 | 1240 |  |  |  |  |  |  |  | 
CC(C)OC(=O)Nc1ncnn2c([C@]3(C#N)O[C@H](COC(=O)OC(C)C)[C@@H](OC(=O)OC(C)C)[C@H]3O)ccc12 [Compound 62, isopropyl (7-((2R,3R,4S,5R)-2-cyano-3-hydroxy-4-((isopropoxycarbonyl)oxy)-5-(((isopropoxycarbonyl)oxy)methyl)tetrahydrofuran-2-yl)pyrrolo[2,1-f][1,2,4]triazin-4-yl)carbamate] | 0.1 | > 50000 | 488.7 | 4.19 | 12.12 | 31.1 | ≥ 5000 | > 50000 | 10 | 61 | ≥ 5000 |  |  |  |  |  |  |  | 
N#C[C@@]1(c2ccc3c(N)ncnn23)O[C@H](COC(=O)OCCl)[C@@H](O)[C@H]1O [Compound 101, ((2R,3S,4R,5R)-5-(4-aminopyrrolo[2,1-f][1,2,4]triazin-7-yl)-5-cyano-3,4-dihydroxytetrahydrofuran-2-yl)methyl (chloromethyl) carbonate] |  |  |  |  |  |  |  |  |  |  |  |  |  | > 50000 | 1960 | 1840 | 0.9 | 3210 | 
CCOP(=O)(O)O[C@H]1[C@@H](O)[C@](C#N)(c2ccc3c(N)ncnn23)O[C@@H]1COC(=O)OC(C)C [Compound 144, [(2R,3S,4R,5R)-5-(4-aminopyrrolo[2,1-f][1,2,4]triazin-7-yl)-5-cyano-3-[ethoxy(hydroxy)phosphoryl]oxy-4-hydroxy-tetrahydrofuran-2-yl]methyl isopropyl carbonate] |  |  |  |  |  |  |  |  |  |  |  |  |  | > 50000 | 3060 |  | 0.4 | > 50000 | 
CN1[C@@H]2CC[C@H]1C[C@@H](OC(=O)OC[C@H]1O[C@@](C#N)(c3ccc4c(N)ncnn34)[C@H](O)[C@@H]1O)C2 [Compound 156, ((2R,3S,4R,5R)-5-(4-aminopyrrolo[2,1-f][1,2,4]triazin-7-yl)-5-cyano-3,4-dihydroxytetrahydrofuran-2-yl)methyl ((1R,3r,5S)-8-methyl-8-azabicyclo[3.2.1]octan-3-yl) carbonate] |  |  | 248.79 | 0.12 | 0.13 |  |  |  |  |  |  |  |  | > 50000 | 49800 |  | 0.3 | 31400 | 789
